{"source": "patent US6582718B2", "about": "“Cyclosporin compositions” (Novartis AG, priority 1992, dated 2003)", "assay": "Irritation of the eyes by surfactants used in eye-drops", "text": "In an attempt to solve these problems, studies have been conducted with various surfactants which are currently used for formulating medical substances with low solubility in water, especially the most commonly used surfactants polysorbate 80 and polyoxyethylene hydrogenated castor oil."}
{"substance": "Polyoxyethylene hydrogenated castor oil", "values": [{"measurement": "irritation of the eyes", "result": "strongly irritate the eyes"}]}
